Laboratory results as given in US20120107323A1, “KINASE PROTEIN BINDING INHIBITORS” (University of Florida, priority 2009, published 2012).

How the values were obtained:
[1] = test system: A375 melanoma cells; assay: CFSE cell proliferation assay, A375; type: cell-based, human
Experimental: For staining with CFSE (Molecular Probes, Eugene, Oreg.)., 1×10^7/ml cells were suspended in PBS and incubated at 37° C. for 5 min with the 10 μM of CFSE. Stained cells were cultured with medium alone or with inhibitor for 24, 48, and 72 hours, fixed and analyzed by a FACS Calibur cytometer (Becton Dickinson, San Jose, Calif.).

[2] = test system: AsPC1 pancreatic cancer cells; assay: Cell viability (MTT), AsPC1; type: cell-based; details: Homo sapiens; AsPC1, 72 hours; read-out: IC50 of INT2-31, cell viability
Experimental: (§1) Cell viability (MTT) and CFSE Proliferation assay: Cells were plated in 96-well plates and let adhere overnight. After cell treatment, cell viability was measured by 3-(4,5-dimethylthiazol-2-yl)-2,5-diphenyl tetrazolium bromide (MTT) assay (CellTiter 96® Aqueous, Promega, Madison, Wis.).
Cell viability and detachment assays: After cells were treated with siRNA transfection, cell viability was measured by 3-(4,5-dimethylthiazol2-yl)-2,5-diphenyl tetrazolium bromide (MTT) assay (CellTiter 96® AQueous, Promega, Madison, Wis.). Briefly, 20 μl of the tetrazolium compound was added to each well. The cells were then incubated at 37° C. for 1 h. The plate was read at 490 nm with a plate reader to determine the viability. In detachment assays, detached and attached cells were harvested separately and counted in a hemocytometer. The percentage of detachment was calculated by dividing the number of detached cells by the total number of cells. Apoptosis assays: After treatment, attached and detached cells were collected, counted and prepared for terminal uridine deoxynucleotidyl transferase (TUNEL) assay by utilizing an APO-BRDU kit (BD Pharmingen, San Diego, Calif.) according to the manufacturer's instructions. Stained cells were analyzed with a fluorescence-activated cell sorting-Calibur flow cytometer (BD Biosciences). […] Apoptotic cells were also analyzed by Hoechst staining. […]

[3] = test system: A375 melanoma cells; assay: Cell viability (MTT), A375; type: cell-based, human
Experimental: as §1
(§2) Cell viability and detachment assays: After cells were treated with siRNA transfection, cell viability was measured by 3-(4,5-dimethylthiazol2-yl)-2,5-diphenyl tetrazolium bromide (MTT) assay (CellTiter 96® AQueous, Promega, Madison, Wis.). Briefly, 20 μl of the tetrazolium compound was added to each well. The cells were then incubated at 37° C. for 1 h. The plate was read at 490 nm with a plate reader to determine the viability. In detachment assays, detached and attached cells were harvested separately and counted in a hemocytometer. The percentage of detachment was calculated by dividing the number of detached cells by the total number of cells. Apoptosis assays: After treatment, attached and detached cells were collected, counted and prepared for terminal uridine deoxynucleotidyl transferase (TUNEL) assay by utilizing an APO-BRDU kit (BD Pharmingen, San Diego, Calif.) according to the manufacturer's instructions. Stained cells were analyzed with a fluorescence-activated cell sorting-Calibur flow cytometer (BD Biosciences). Calculation of the percentage of apoptotic cells in the sample was completed with CellQuest software (BD Biosciences). Apoptotic cells were also analyzed by Hoechst staining. Hoechst 33342 ([…]) was added to the fixed cells and the specimens were mounted on glass coverslips. The slides were viewed under the Zeiss microscope for apoptotic nuclei. The percent of apoptotic cells was calculated as the ratio of apoptotic cells to total number of cells.
In addition, the effect of INT2-31 on cell viability of esophageal, pancreatic and breast cancer cell lines was analyzed and the IC50 value for each cell line was determined, as shown in Table 1. […] Similar to melanoma results, INT2-31 inhibits viability more in cancer cells compared to normal cells. […]

[4] = test system: Miapaca-2 orthotopic xenografts; assay: Orthotopic pancreatic xenograft, Miapaca-2; type: in vivo, mice
From the text: For the orthotopic model of pancreatic cancer, the University of Florida IACUC approved the following protocol (IACUC Study #2000801506). The pancreatic cancer cell lines, Mia paca-2 and Panc-1 cells were stably transfected using luciferase-RFP (red fluorescent protein) reporter gene for in vivo imaging of the xenografts. Following expansion and sorting of RFP positive cells, cells were expanded in culture and 5×10^6 tumor cells were implanted into the pancreas of 20 mice. For intra-pancreatic implantation of cells, mice were anesthetized with Isoflurane using the ACS provided and maintained rodent anesthesia machine. Under sterille surgical conditions, via 1.0 cm incision of the skin, abdominal wall and peritonium, the spleen was retracted and cells were injected in […] into the tail of the pancreas using a 29-gauge needle. The abdominal wall and peritoneum was sutured using 5.0 absorbable surgical sutures and the skin was closed with medical glue (dermabond). Postoperative analgesia was 0.05 mg/kg of buprenorphine subcutaneously per 8-12 hours postoperatively.
Mice were hand restrained prior to intraperitoneal injections. Mice were euthanized 6 weeks after tumor innoculation and tumor and tissue collected. As described below, mice were imaged weekly with the IVIS lumina imager and tumor size was estimated by the bioluminescent signal. […]

[5] = test system: KYSE70 esophageal cancer cells; assay: Cell viability (MTT), KYSE70; type: cell-based
Experimental: as §1, §2
In addition, the effect of INT2-31 on cell viability of esophageal, pancreatic and breast cancer cell lines was analyzed and the IC50 value for each cell line was determined, as shown in Table 1. […] Similar to melanoma results, INT2-31 inhibits viability more in cancer cells compared to normal cells. Sensitivity of the cells to INT2-31 varied and directly correlated to the FAK and IGF-1R expression level of the cells.

## CSc1ncnc2c1ccn2C1O[C@H](COP(=O)(O)O)[C@@H](O)[C@H]1O (stereo partly drawn) [INT2-31, 4-(Methylthio)-7-(5-O-phosphono-D-ribofuranosyl)-{7H-Pyrrolo[2,3-d]pyrimidine}]
[1]
  cell proliferation (CSFE): inhibited cell proliferation
[2]
  IC50: 16.9 µM
[3]; A375, MTT
  cell viability (in words): inhibited cell viability in a dose-dependent manner
[3]; Homo sapiens, A-375, A375, 72 hours, read-out: IC50 of INT2-31, cell viability
  IC50: 2.7 µM
[4]; Miapaca2, daily intraperitoneal 50 mg/kg, 21 days
  growth of the orthotopic pancreatic xenografts: sufficiently reduced the growth
[4]; both orthotopic models
  side effects as measured by body weights and appearances of the animals: without any significant side effects
[5]; Homo sapiens, KYSE-70, KYSE70, 72 hours, read-out: IC50 of INT2-31, cell viability
  IC50: 4.6 µM
[5]; KYSE 70, 0.5 and 1 μM INT2-31
  effect of combination with 5-FU on cell viability: synergistic effects
[5]; KYSE 70, 72 hours
  sensitivity of cells to single-agent treatment: sensitive
